In patent US8222297B2, “Aniline or phenol mustards linked to DNA-affinic molecules or water-soluble aromatic rings and their use as cancer therapeutic agents” (Academia Sinica, priority 2007, dated 2012):
Where two headings read alike, the source gives them in different places.

Key:
[1] = test system: CCRF-CEM human lymphoblastic leukemia cells; experiment: In vitro cytotoxicity, XTT assay
CCRF-CEM/Taxol = experiment: In vitro cytotoxicity, XTT assay, taxol-resistant subline; details: for IC50: Homo sapiens, CCRF-CEM, 72 h, read-out: IC50 CCRF-CEM/Taxol, XTT assay, 72-hr incubation; for fold of cross-resistant, CCRF-CEM/Taxol vs IC50 of parent cell line: number in brackets
[2] = test system: human mammary carcinoma MX-1 xenograft; experiment: Antitumor therapeutic effect in nude mice bearing MX-1 xenograft; type: in vivo; details: for Tumor remission achieved: doses and schedules as in Table 2 (30-150 mg/kg, i.v.); for log cell kill: estimated by Eq. 4 from remission time; for Duration complete remission maintained without relapse: one cycle 5-dose-treatment, 3 out of 3 mice
Method: (§1) Athymic nude mice bearing the nu/nu gene were used for human breast tumor MX-1 xenograft (FIGS. 3 and 4) and human brain glioma U87 GM xenograft (FIG. 5). Nude mice were obtained from National Cancer Institute, Frederick, Md. Male mice 6 weeks old or older weighing 22 g or more were used for experiments with subcutaneous tumor inoculation as described previously.^62 Drug was administrated via the tail vein by iv injection. Tumor volumes were assessed by measuring length×width×height (or width) by using caliper. Vehicle used was 20 μL DMSO in 180 μL saline. All animal studies were conducted in accordance with the guidelines of the U.S. National Institutes of Health Guide for the Care and Use of Animals and the protocol approved by the Institutional Animal Care and Use Committee.
(§2) Animals. Athymic nude mice bearing the nu/nu gene were obtained from NCI, Frederick, Md. and used for all human tumor xenografts. Male nude mice 6 weeks or older weighing 20-24 g or more were used. Compounds were administered via the tail vein for i.v. injection or infusion as described previously.^59 A typical formulation for chemotherapeutic studies for each drug was dissolved in DSMO to make a 25 mg/ml fresh solution, 0.4 ml of this solution was mixed with 0.3 ml of Tween 80, plus 1.3 ml to make 2 ml of 5 mg/ml solution. Bolus injection volume was 0.1-0.2 ml per mouse. Tumor volume was assessed by measuring length×width×height (or width) by using a caliper. For tumor-bearing nude mice during the course of the experiment, the body weight refers to total weight minus the weight of the tumor. All animal studies were conducted in accordance with the guidelines for the National Institute of Health Guide for the Care and Use of Animals and the protocol approved by the Institutional Animal Care and Use Committee.
The therapeutic effects of a drug against human tumor xenografts in nude mice, under the optimal therapeutic conditions but without any lethality due to drug toxicity, the following degrees of therapeutic effects are defined and calculated by the following formula:
[formula] • where T0 is the initial tumor size (in mm^3) at beginning of drug treatment; • Tc is tumor size of untreated control group on a given date; and • Tx is tumor size of the drug treated group on a given date.
[formula] • Where T0 and Tx are as specified as above. • Tumor disappearance (complete remission or CR) is defined by the effect where [Tx=0] for a period of time (in days) for a proportion of animals (NCR/N), where N is the total number of animals in the group, and NCR is the number of mice in the group that achieved CR. • Tumor relapse is quantitatively calculated by [The Day tumor relapsed(Drelp)−The Day CR achieved(DCR)] (Eq. 3) • for a proportion of animals (Nrelp/N) where N is the total number of animals in the group, and Nrelp is the number of the mice in the group that relapsed. • The log cell kill (LCK) of the tumor tissue after a given chemotherapy that reached CR is estimated by: LCK=log [2^(Tumor remission in days/Tumor doubling time in days)] (Eq. 4)

MX-1 cells = experiment: Inhibition of biosynthesis of DNA, RNA and protein (tracer incorporation); type: cell-based, human; details: for degrees of inhibiting biosynthesis of DNA and RNA, maximized: [3H]thymidine / [3H]adenosine incorporation; for persistence of inhibition of biosynthesis: printed 'over 6-24 hrs'
Method: [^3H]Thymidine (1 uCi), [^3H]adenosine (1 μCi) and [^3H]leucine (2 μCi) were used as the tracers for incorporation into DNA, RNA and protein, respectively. […] Incubation was terminated at each time points as indicated. For details of the method see Chou et al. Cancer Research 43: 3074-3079, 1983. […] The half-maximal inhibition was reached within 15-30 min and persisted for over 6-24 hrs.

[3] = test system: Human colon carcinoma HCT-116 cells; experiment: In vitro cytotoxicity, SRB assay
[4] = test system: Human mammary carcinoma (MX-1) tumor cells; experiment: In vitro cytotoxicity, SRB assay
[5] = test system: human glioma U87 GM s.c. xenograft; experiment: Therapeutic effect in nude mice bearing U87 glioma xenograft; type: in vivo
Method: as §1
The therapeutic effects of N-mustard compounds, BO-1049, 1051 and 1055, against human glioma U87 GM s.c. xenograft in nude mice were given in FIG. 5, A and B. U87 glioma is known to be refractory tumor that can not be effectively treated with cell-cycle specific anti-tumor drugs such as taxol, epothilones, or arabinosylcytosine. However, cell-cycle non-specific drugs such as alkylating agent, cyclophosphamide or BCNU, yields better therapeutic results. […] However, upon 6 days of recession of treatment with BO-1049 or BO-1055, the tumor began to regrow.
as §2

[6] = Homo sapiens, CCRF-CEM, 72 h, read-out: IC50 CCRF-CEM, XTT assay, 72-hr incubation
[7] = Homo sapiens, HCT-116, 72 h, read-out: IC50 HCT-116, SRB assay, 72-hr incubation
[8] = Homo sapiens, 72 h, read-out: IC50 MX-1, SRB assay, 72-hr incubation
[9] = read-out: IC50 CCRF-CEM, XTT assay, 72-hr incubation

O=C(Nc1ccc(N(CCCl)CCCl)cc1)Nc1c2ccccc2nc2ccccc12 [BO-1034, 1-Acridin-9-yl-3{4-[bis(2-chloroethyl)amino]phenyl}urea]
IC50 [1, 6]: 0.198 µM | IC50 (CCRF-CEM/Taxol): 0.418 µM | fold of cross-resistant, CCRF-CEM/Taxol vs IC50 of parent cell line (CCRF-CEM/Taxol): 2.1 x

O=C(Nc1ccc(N(CCCl)CCCl)cc1)Nc1cc(CO)cc(Nc2c3ccccc3nc3ccccc23)c1 [BO-1037, 1-[3-(Acridin-9-ylamino)-5-hydroxymethylphenyl]-3-{4-[bis(2-chloroethyl)amino]phenyl}-urea]
Tumor remission achieved [2]: CR in parts of the mice | IC50 [1, 6]: 0.0545 µM

Cc1cc(NC(=O)Nc2ccc(N(CCCl)CCCl)cc2)c2ccccc2n1 [BO-1038, 1-{4-[Bis(2-chloroethyl)amino]phenyl}-3-(2-methyl-quinolin-4-yl)urea]
time to half-maximal inhibition of biosynthesis (MX-1 cells; 10 μM): 15 to 30 min | degrees of inhibiting biosynthesis of DNA and RNA, maximized (MX-1 cells; 10 μM): 50-80% | persistence of inhibition of biosynthesis (MX-1 cells; 10 μM): 6 to 24 h | Tumor remission achieved [2]: complete tumor remission | log cell kill [2]: > 4.1 | Duration complete remission maintained without relapse [2]: over 70 days | IC50 [3, 7]: 1.25 µM | fold of cross-resistant, CCRF-CEM/Taxol vs IC50 of parent cell line (CCRF-CEM/Taxol): 2.2 x

Cc1cccc2c(Nc3cc(CO)cc(NC(=O)Nc4ccc(N(CCCl)CCCl)cc4)c3)c3ccccc3nc12 [BO-1050, 1-{4-[bis(2-chloroethyl)amino]phenyl}-3-[3-hydroxymethyl-5-(4-methylacridin-9-ylamino)phenyl]urea]
Tumor remission achieved [2]: CR in parts of the mice | log cell kill [2]: > 4.1 | Duration complete remission maintained without relapse [2]: over 70 days | IC50 [1, 6]: 0.03 µM | IC50 [4, 8]: 0.128 µM | fold of cross-resistant, CCRF-CEM/Taxol vs IC50 of parent cell line (CCRF-CEM/Taxol): 12.8 x

Cc1ccc(Nc2c3ccccc3nc3c(C)cccc23)cc1NC(=O)Nc1ccc(N(CCCl)CCCl)cc1 [BO-1051]
delay in reaching maximal effect on DNA and RNA biosynthesis (MX-1 cells; 10 μM): about 1 hr | time to half-maximal inhibition of biosynthesis (MX-1 cells; 10 μM): 15 to 30 min | degrees of inhibiting biosynthesis of DNA and RNA, maximized (MX-1 cells; 10 μM): 50-80% | persistence of inhibition of biosynthesis (MX-1 cells; 10 μM): 6 to 24 h | inhibition at 10 µM (MX-1 cells; Homo sapiens, MX1, 0.5 h, after initial activation within the first 30 min, read-out: protein synthesis: moderate inhibition following initial activation): ~20% | Tumor remission achieved [2]: complete tumor remission | log cell kill [2]: > 4.1 | Duration complete remission maintained without relapse [2]: over 70 days | tumor-growth suppression ([5]; 100 mg/kg, Q2D×5, i.v.-injection, n=3): complete tumor-growth suppression | tumor size as % of original tumor size ([5]; 100 mg/kg, Q2D×5, n=3, one cycle, observed 10 and 12 days after last dose on Day 16): 18% | therapeutic effect compared with cyclophosphamide ([5]; BO-1049 150, BO-1051 100, BO-1055 30 mg/kg vs cyclophosphamide 80 mg/kg, all Q2D×5, parallel study): superior therapeutic effects than cyclophosphamide | IC50 [1, 6]: 0.074 µM | IC50 [4, 8]: 0.174 µM

Cc1ccc(NC(=O)Nc2ccc(N(CCCl)CCCl)cc2)cc1Nc1c2cccc(C)c2nc2c(C(=O)NCCN(C)C)cccc12 [BO-1053, 9-[5-(3-{4-[Bis(2-chloroethyl)amino]phenyl}ureido)-2-methylphenylamino]-5-methylacridine-4-carboxylic acid (2-dimethylaminoethyl)amide]
Remark (tolerability of dose) ([2]; 70 mg/kg, Q2D × 5, i.v.): Too high dose | Tumor remission achieved [2]: complete tumor remission | IC50 [1, 9]: 0.012 µM | fold of cross-resistant, CCRF-CEM/Taxol vs IC50 of parent cell line (CCRF-CEM/Taxol): 15.3 x

CCOC(=O)Nc1cc(COC(=O)Nc2ccc(N(CCCl)CCCl)cc2)cc(Nc2c3ccccc3nc3ccccc23)c1 [BO-1054, (3-(Acridin-9-ylamino)-5-{4-[bis(2-chloroethyl)amino]phenylcarbamoyloxymethyl}-phenyl)carbamic acid ethyl ester]
IC50 [1, 9]: 0.084 µM | IC50 ([4]; read-out: IC50 MX-1, SRB assay, 72-hr incubation): 0.605 µM | IC50 ([3]; read-out: IC50 HCT-116, SRB assay, 72-hr incubation): 0.757 µM

O=C(Nc1cc(CO)cc(Nc2c3ccccc3nc3ccccc23)c1)Oc1ccc(N(CCCl)CCCl)cc1 [BO-1062, [3-(Acridin-9-ylamino)-5-hydroxymethylphenyl]carbamic acid 4-[bis(2-chloro-ethyl)amino]phenyl ester]
Tumor remission achieved [2]: complete tumor remission | IC50 [1, 6]: 0.057 µM | IC50 (CCRF-CEM/Taxol): 0.112 µM | fold of cross-resistant, CCRF-CEM/Taxol vs IC50 of parent cell line (CCRF-CEM/Taxol): 2.0 x

Cc1cccc2c(Nc3cc(CO)cc(NC(=O)Oc4ccc(N(CCCl)CCCl)cc4)c3)c3ccccc3nc12 [BO-1063, [3-Hydroxymethyl-5-(4-methylacridin-9-ylamino)phenyl]carbamic acid 4-[bis(2-chloroethyl)amino]phenyl ester]
Remark (tolerability of dose) ([2]; 100 mg/kg, QD × 3, i.v.): Too high dose | IC50 [1, 6]: 0.075 µM | IC50 (CCRF-CEM/Taxol): 0.081 µM | fold of cross-resistant, CCRF-CEM/Taxol vs IC50 of parent cell line (CCRF-CEM/Taxol): 1.1 x

Cc1ccc(Nc2c3ccccc3nc3c(C)cccc23)cc1NC(=O)Oc1ccc(N(CCCl)CCCl)cc1 [BO-1064, [2-Methyl-5-(4-methylacridin-9-ylamino)phenyl]carbamic acid 4-[bis(2-chloro-ethyl)amino]phenyl ester]
Tumor remission achieved [2]: complete tumor remission | IC50 [1, 6]: 0.116 µM | fold of cross-resistant, CCRF-CEM/Taxol vs IC50 of parent cell line (CCRF-CEM/Taxol): 1.4 x

CCOC(=O)Nc1cc(COC(=O)Oc2ccc(N(CCCl)CCCl)cc2)cc(Nc2c3ccccc3nc3ccccc23)c1 [BO-1065, Carbonic acid 3-(acridin-9-ylamino)-5-ethoxycarbonylaminobenzyl ester 4-[bis(2-chloroethyl)amino]phenyl ester]
Remark (tolerability of dose) ([2]; 100 mg/kg, QD × 3, i.v.): Too high dose

COc1cc(NC(=O)Oc2ccc(N(CCCl)CCCl)cc2)cc(Nc2c3ccccc3nc3ccccc23)c1 [BO-1066, [3-(Acridin-9-ylamino)-5-methoxyphenyl]carbamic acid 4-[bis(2-chloroethyl)-amino]phenyl ester]
Tumor remission achieved [2]: complete tumor remission | fold of cross-resistant, CCRF-CEM/Taxol vs IC50 of parent cell line (CCRF-CEM/Taxol): 1.5 x

CC(=O)O[C@H]1C(=O)[C@@]2(C)[C@H]([C@H](OC(=O)c3ccccc3)[C@]3(O)C[C@H](OC(=O)[C@H](O)[C@@H](NC(=O)c4ccccc4)c4ccccc4)C(C)=C1C3(C)C)[C@]1(OC(C)=O)CO[C@@H]1C[C@@H]2O [Taxol, reference compound]
IC50 [1, 6]: 0.0013 ± 0.0001 µM | IC50 [4, 8]: 0.035 ± 0.014 µM | IC50 [3, 7]: 0.0013 ± 0.0002 µM | fold of cross-resistant, CCRF-CEM/Taxol vs IC50 of parent cell line (CCRF-CEM/Taxol): 330 x

CC[C@]1(O)C[C@@H]2CN(CCc3c([nH]c4ccccc34)[C@@](C(=O)OC)(c3cc4c(cc3OC)N(C)[C@H]3[C@@](O)(C(=O)OC)[C@H](OC(C)=O)[C@]5(CC)C=CCN6CC[C@]43[C@@H]65)C2)C1 [Vinblastine, reference compound]
IC50 [1, 6]: 0.00073 ± 9e-05 µM | IC50 [4, 8]: 0.0029 ± 0.0005 µM | IC50 [3, 7]: 0.0018 ± 0.0004 µM | fold of cross-resistant, CCRF-CEM/Taxol vs IC50 of parent cell line (CCRF-CEM/Taxol): 106.2 x
